Data: ChEMBL document CHEMBL3797059 (Bioorg Med Chem Lett, 2016)
Values belong to the compound of their own block, whether it stands above or below them. The source made the active and inactive calls. The rule behind the calls is not given here.

Experiments:
[1] = target: T1, Fibroblast growth factor receptor 2 (Homo sapiens, UniProt P21802); assay: Inhibition of recombinant FGFR2 (unknown origin) using (Glu,Tyr)4:1 as substrate incubated for 60 mins by ELISA
[2] = target: Vascular endothelial growth factor receptor 2 (Homo sapiens, UniProt P35968); assay: Inhibition of recombinant VEGFR2 (unknown origin) using (Glu,Tyr)4:1 as substrate incubated for 60 mins by ELISA
Chain of Vascular endothelial growth factor receptor 2 (P35968 whole entry): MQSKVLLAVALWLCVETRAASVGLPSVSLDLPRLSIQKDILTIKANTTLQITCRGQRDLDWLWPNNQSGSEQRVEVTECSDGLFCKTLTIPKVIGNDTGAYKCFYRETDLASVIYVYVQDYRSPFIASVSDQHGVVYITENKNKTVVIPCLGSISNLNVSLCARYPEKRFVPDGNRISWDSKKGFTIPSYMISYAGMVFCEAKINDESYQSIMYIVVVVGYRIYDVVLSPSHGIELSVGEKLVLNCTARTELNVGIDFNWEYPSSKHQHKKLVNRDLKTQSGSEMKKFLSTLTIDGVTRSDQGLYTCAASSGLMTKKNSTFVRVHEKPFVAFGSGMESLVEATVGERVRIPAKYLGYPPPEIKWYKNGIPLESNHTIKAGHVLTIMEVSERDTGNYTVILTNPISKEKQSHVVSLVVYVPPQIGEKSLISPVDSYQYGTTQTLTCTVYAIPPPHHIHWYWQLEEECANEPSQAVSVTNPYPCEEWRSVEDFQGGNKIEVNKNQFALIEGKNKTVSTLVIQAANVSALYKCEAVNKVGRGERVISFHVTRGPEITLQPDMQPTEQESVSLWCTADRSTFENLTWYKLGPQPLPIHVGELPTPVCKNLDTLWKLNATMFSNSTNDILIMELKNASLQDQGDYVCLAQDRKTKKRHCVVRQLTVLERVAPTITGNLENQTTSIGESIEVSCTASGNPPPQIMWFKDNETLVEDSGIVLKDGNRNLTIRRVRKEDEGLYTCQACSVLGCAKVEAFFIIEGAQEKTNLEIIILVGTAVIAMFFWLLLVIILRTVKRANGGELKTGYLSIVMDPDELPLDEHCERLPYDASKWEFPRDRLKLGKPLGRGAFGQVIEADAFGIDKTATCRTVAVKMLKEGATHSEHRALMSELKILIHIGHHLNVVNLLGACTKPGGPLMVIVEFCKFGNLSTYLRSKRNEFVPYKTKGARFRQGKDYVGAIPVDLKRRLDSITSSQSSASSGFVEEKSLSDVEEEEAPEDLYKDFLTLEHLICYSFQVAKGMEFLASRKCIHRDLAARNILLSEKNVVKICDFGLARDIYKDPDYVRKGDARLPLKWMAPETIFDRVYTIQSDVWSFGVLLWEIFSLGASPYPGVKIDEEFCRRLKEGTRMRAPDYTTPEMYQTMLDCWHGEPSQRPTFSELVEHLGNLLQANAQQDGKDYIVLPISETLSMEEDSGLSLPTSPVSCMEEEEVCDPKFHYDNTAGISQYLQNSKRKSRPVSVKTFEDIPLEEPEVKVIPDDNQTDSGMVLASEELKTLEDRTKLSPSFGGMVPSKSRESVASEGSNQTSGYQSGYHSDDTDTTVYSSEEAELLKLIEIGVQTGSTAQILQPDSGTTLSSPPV

[3] = target: T2, Fibroblast growth factor receptor 1 (Homo sapiens, UniProt P11362); assay: Inhibition of recombinant FGFR1 (unknown origin) using (Glu,Tyr)4:1 as substrate incubated for 60 mins by ELISA
Target sequence in this assay (P11362 whole entry): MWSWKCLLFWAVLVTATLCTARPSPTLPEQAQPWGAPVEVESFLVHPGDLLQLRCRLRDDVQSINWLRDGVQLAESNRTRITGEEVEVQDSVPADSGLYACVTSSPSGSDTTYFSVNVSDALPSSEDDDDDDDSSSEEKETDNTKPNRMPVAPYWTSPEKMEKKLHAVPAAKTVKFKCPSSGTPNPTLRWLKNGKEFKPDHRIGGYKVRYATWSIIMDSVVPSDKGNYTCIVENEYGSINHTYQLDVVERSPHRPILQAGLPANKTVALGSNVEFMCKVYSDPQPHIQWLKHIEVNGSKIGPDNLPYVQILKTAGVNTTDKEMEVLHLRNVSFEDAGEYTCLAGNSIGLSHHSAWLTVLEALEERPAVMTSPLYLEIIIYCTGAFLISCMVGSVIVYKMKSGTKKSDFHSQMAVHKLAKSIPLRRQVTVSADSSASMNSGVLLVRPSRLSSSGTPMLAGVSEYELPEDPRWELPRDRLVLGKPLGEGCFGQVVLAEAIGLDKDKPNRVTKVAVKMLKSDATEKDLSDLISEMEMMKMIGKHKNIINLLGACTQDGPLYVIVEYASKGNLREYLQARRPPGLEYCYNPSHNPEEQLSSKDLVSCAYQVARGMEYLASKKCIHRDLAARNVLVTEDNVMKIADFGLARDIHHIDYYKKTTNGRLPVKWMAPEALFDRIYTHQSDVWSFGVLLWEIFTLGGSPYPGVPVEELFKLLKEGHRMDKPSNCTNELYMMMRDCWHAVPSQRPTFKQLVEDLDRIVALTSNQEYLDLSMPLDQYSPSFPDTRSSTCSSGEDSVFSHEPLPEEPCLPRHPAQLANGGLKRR

[4] = target: Fibroblast growth factor receptor 3 (Homo sapiens, UniProt P22607); assay: Inhibition of recombinant FGFR3 (unknown origin) using (Glu,Tyr)4:1 as substrate incubated for 60 mins by ELISA
Chain of Fibroblast growth factor receptor 3 (P22607 whole entry): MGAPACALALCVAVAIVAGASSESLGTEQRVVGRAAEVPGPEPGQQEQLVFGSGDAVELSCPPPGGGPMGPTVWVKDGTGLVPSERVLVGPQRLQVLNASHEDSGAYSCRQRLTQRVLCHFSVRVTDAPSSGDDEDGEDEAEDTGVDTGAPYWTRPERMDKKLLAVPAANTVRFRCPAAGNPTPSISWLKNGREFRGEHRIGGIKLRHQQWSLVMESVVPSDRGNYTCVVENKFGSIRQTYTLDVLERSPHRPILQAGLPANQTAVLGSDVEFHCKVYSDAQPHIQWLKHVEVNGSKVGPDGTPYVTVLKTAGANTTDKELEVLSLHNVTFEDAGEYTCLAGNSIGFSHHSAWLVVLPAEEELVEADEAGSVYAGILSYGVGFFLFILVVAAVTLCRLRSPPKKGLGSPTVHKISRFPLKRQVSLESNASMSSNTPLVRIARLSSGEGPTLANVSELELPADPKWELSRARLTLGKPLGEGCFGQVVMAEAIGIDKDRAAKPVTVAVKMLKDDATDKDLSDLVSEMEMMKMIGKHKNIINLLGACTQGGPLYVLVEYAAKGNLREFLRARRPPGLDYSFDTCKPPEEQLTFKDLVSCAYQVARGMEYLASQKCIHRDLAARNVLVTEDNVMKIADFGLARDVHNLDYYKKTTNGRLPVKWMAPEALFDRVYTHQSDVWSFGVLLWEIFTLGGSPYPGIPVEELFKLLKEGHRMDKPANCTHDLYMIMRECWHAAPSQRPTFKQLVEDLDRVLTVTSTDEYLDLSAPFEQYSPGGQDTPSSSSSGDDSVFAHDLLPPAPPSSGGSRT

[5] = target: Fibroblast growth factor receptor 4 (Homo sapiens, UniProt P22455); assay: Inhibition of recombinant FGFR4 (unknown origin) using (Glu,Tyr)4:1 as substrate incubated for 60 mins by ELISA
[6] = target: T2, Fibroblast growth factor receptor 1; assay: Inhibition of FGFR1 phosphorylation in human KG1 cells incubated for 2 hrs by Western blot analysis; type: cell-based; details: KG-1
Target sequence in this assay (P11362 22-822 limits assumed): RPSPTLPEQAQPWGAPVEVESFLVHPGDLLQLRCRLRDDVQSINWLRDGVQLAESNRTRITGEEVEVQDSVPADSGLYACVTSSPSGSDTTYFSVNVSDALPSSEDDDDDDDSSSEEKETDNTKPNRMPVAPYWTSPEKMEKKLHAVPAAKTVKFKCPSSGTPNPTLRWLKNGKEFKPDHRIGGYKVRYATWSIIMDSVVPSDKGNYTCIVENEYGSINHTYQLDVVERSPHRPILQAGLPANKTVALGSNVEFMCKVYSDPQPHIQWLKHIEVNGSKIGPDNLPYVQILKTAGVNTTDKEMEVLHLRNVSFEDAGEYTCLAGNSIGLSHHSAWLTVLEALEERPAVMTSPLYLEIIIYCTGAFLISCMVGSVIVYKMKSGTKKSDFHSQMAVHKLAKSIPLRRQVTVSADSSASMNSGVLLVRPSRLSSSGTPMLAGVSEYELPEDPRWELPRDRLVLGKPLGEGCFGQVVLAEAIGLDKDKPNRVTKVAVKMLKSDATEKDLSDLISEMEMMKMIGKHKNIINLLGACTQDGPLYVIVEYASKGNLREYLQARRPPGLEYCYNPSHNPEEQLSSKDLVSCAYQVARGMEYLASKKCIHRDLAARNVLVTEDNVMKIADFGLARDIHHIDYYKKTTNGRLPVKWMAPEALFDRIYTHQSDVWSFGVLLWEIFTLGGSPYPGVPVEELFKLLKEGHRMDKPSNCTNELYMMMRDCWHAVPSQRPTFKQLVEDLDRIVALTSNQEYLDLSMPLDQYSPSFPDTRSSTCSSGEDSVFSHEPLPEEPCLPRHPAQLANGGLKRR

[7] = target: T2, Fibroblast growth factor receptor 1; assay: Inhibition of FGFR1 phosphorylation in human KG1 cells assessed as reduction of phospho-PLCgamma level at 0.4 to 10 nM incubated for 2 hrs by Western blot analysis; type: cell-based; details: KG-1
Target sequence in this assay (P11362 22-822 limits assumed): as above

[8] = target: T2, Fibroblast growth factor receptor 1; assay: Inhibition of FGFR1 phosphorylation in human KG1 cells assessed as reduction of phospho-ERK level at 0.4 to 10 nM incubated for 2 hrs by Western blot analysis; type: cell-based; details: KG-1
Target sequence in this assay (P11362 22-822 limits assumed): as above

[9] = target: T1, Fibroblast growth factor receptor 2; assay: Inhibition of recombinant FGFR2 (unknown origin) at 10 nM using (Glu,Tyr)4:1 as substrate incubated for 60 mins by ELISA
Target sequence in this assay (P21802 22-821 limits assumed): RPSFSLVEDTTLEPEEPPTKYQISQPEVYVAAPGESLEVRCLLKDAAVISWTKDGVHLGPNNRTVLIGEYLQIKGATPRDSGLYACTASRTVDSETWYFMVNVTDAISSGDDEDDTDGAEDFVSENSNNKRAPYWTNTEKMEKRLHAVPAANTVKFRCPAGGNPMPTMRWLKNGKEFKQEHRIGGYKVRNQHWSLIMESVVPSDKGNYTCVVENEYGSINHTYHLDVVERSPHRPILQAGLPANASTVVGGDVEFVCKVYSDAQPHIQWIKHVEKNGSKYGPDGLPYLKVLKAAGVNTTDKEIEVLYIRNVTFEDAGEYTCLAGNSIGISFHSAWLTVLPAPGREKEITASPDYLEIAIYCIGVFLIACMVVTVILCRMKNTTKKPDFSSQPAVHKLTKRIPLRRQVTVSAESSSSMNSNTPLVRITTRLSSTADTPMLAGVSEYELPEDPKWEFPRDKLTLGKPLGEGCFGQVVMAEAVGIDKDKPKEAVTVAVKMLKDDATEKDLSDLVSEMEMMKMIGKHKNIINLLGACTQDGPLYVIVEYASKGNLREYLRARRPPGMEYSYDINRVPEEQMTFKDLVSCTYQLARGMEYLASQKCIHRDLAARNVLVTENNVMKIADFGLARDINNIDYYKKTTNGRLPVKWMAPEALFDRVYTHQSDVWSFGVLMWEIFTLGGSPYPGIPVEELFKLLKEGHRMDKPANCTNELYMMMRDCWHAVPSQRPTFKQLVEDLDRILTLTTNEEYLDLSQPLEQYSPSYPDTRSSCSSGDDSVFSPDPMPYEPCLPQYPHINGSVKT

[10] = target: T1, Fibroblast growth factor receptor 2; assay: Inhibition of FGFR2 (unknown origin) at 1 nM using (Glu,Tyr)4:1 as substrate incubated for 60 mins by ELISA
Target sequence in this assay (P21802 22-821 limits assumed): as above

IC50 [1]: < 10 nM
SMILES: CCN1CCN(c2ccc3c(Nc4cc(CCc5cc(OC)cc(OC)c5)[nH]n4)nc(NCc4cc(C)no4)nc3c2)CC1

IC50 [2]: 21.5 nM
IC50 [3]: 1 nM
IC50 [4]: 5 nM
IC50 [5]: 52.7 nM
inhibition [6]: Dose-dependent effect
inhibition [7]: Active
inhibition [8]: Active
SMILES: COc1cc(CCc2cc(Nc3ncnc4cc(N5CCN6CCCCC6C5)ccc34)n[nH]2)cc(OC)c1 (stereo unspecified)

IC50 [2]: > 100 nM
SMILES: COCCOc1ccc2c(Nc3cc(CCc4cc(OC)cc(OC)c4)[nH]n3)ncnc2c1

inhibition [9]: 41.8%
SMILES: COc1cc(CCc2cc(Nc3ncnc4cc(N5CCN(S(=O)(=O)c6ccc(C)cc6)CC5)ccc34)n[nH]2)cc(OC)c1

IC50 [2]: 17.5 nM
SMILES: CCN1CCN(c2ccc3c(Nc4cc(CCc5c(Cl)c(OC)cc(OC)c5Cl)[nH]n4)ncnc3c2)CC1

inhibition [9]: 73.3%
inhibition [10]: 16.9%
SMILES: COc1cc(CCc2cc(Nc3ncnc4cc(OC)ccc34)n[nH]2)cc(OC)c1

inhibition [10]: 87.4%
SMILES: COc1cc(CCc2cc(Nc3ncnc4cc(N5CCCCC5)ccc34)n[nH]2)cc(OC)c1

IC50 [2]: > 100 nM
SMILES: COc1cc(CCc2cc(Nc3ncnc4cc(NCCN5CCOCC5)ccc34)n[nH]2)cc(OC)c1

IC50 [2]: 35.8 nM
SMILES: CCc1nc(Nc2cc(CCc3cc(OC)cc(OC)c3)[nH]n2)c2ccc(N3CCN(CC)CC3)cc2n1
